# Where two headings read alike, the source gives them in different places.
# Key:
# [1] = system: S. pneumoniae A-9585; assay: In vitro MIC, tube dilution; format: cell-based; settings: overnight incubation at 37° C., additional data table; for MIC: Streptococcus pneumoniae, A9585, Nutrient Broth
# [2] = system: S. pyogenes A-9604; assay: In vitro MIC, tube dilution; format: cell-based; settings: Nutrient Broth, overnight incubation at 37° C., additional data table; for MIC: Streptococcus pyogenes, A9604, tube dilution
# [3] = system: S. aureus A-9537; assay: In vitro MIC, tube dilution; format: cell-based; settings: overnight incubation at 37° C., additional data table; for MIC: Staphylococcus aureus
# [4] = system: S. aureus A-9606 (Pen-res.); assay: In vitro MIC, tube dilution; format: cell-based; settings: Nutrient Broth, overnight incubation at 37° C., additional data table; for MIC: Staphylococcus aureus, read-out: MIC S. aureus (Pen-res.) A-9606
# [5] = system: S. faecalis A20688; assay: In vitro MIC, tube dilution; format: cell-based; settings: Nutrient Broth, overnight incubation at 37° C., additional data table; for MIC: Enterococcus faecalis, A20688, tube dilution
# [6] = system: E. coli A15119; assay: In vitro MIC, tube dilution; format: cell-based; settings: Nutrient Broth, overnight incubation at 37° C., additional data table; for MIC: Escherichia coli, A15119, tube dilution
# [7] = system: E. coli A20341-1; assay: In vitro MIC, tube dilution; format: cell-based; settings: Nutrient Broth, overnight incubation at 37° C., additional data table; for MIC: Escherichia coli, A203411, tube dilution
# [8] = system: K. pneumoniae A-9664; assay: In vitro MIC, tube dilution; format: cell-based; settings: Nutrient Broth, overnight incubation at 37° C., additional data table; for MIC: Klebsiella pneumoniae, A9664, tube dilution
# [9] = system: K. pneumoniae A20468; assay: In vitro MIC, tube dilution; format: cell-based; settings: Nutrient Broth, overnight incubation at 37° C., additional data table; for MIC: Klebsiella pneumoniae, A20468, tube dilution
# [10] = system: P. mirabilis A-9900; assay: In vitro MIC, tube dilution; format: cell-based; settings: Nutrient Broth, overnight incubation at 37° C., additional data table; for MIC: Proteus mirabilis, A9900, tube dilution
# [11] = system: P. vulgaris A21559; assay: In vitro MIC, tube dilution; format: cell-based; settings: Nutrient Broth, overnight incubation at 37° C., additional data table; for MIC: Proteus vulgaris, A21559, tube dilution
# [12] = system: P. morganii A15153; assay: In vitro MIC, tube dilution; format: cell-based; settings: Nutrient Broth, overnight incubation at 37° C., additional data table; for MIC: Morganella morganii, A15153, tube dilution, read-out: MIC M. morganii A15153
# [13] = system: P. rettgeri A22424; assay: In vitro MIC, tube dilution; format: cell-based; settings: Nutrient Broth, overnight incubation at 37° C., additional data table; for MIC: Providencia rettgeri, A22424, tube dilution
# [14] = system: S. marcescens A20019; assay: In vitro MIC, tube dilution; format: cell-based; settings: Nutrient Broth, overnight incubation at 37° C., additional data table; for MIC: Serratia marcescens, A20019, tube dilution
# [15] = system: E. cloacae A-9656; assay: In vitro MIC, tube dilution; format: cell-based; settings: Nutrient Broth, overnight incubation at 37° C., additional data table; for MIC: Enterobacter cloacae, A9656, tube dilution
# [16] = system: P. aeruginosa A-9843A; assay: In vitro MIC, tube dilution; format: cell-based; settings: Nutrient Broth, overnight incubation at 37° C., additional data table; for MIC: Pseudomonas aeruginosa, A9843A
# [17] = system: P. aeruginosa A21213; assay: In vitro MIC, tube dilution; format: cell-based; settings: Nutrient Broth, overnight incubation at 37° C., additional data table; for MIC: Pseudomonas aeruginosa, A21213, tube dilution
# [18] = system: E. cloacae A-9659; assay: In vitro MIC, tube dilution; format: cell-based; settings: Nutrient Broth, overnight incubation at 37° C., additional data table; for MIC: Enterobacter cloacae, A9659, tube dilution
# Description: N-formimidoyl thienamycin was included as a comparison compound.
# [19] = system: P. aeruginosa A-9843a; assay: Protective effect in the intramuscular treatment of infected mice (PD50); format: in vivo; settings: Pseudomonas aeruginosa, A9843A, im, read-out: PD50/treatment, P. aeruginosa A9843A
# Experimental: The PD50 (dose in mg/kg required to give protection to 50% of the infected mice) is indicated.
# Treatment Schedule: Mice were treated i.m. with drugs 0 and 2 hours post-infection; 5 mice per dose were used for each test
# *For compound of Ex. 2, mice were infected i.p. with 2 × 10^9
# compounds of Ex. 4 and 5, mice were infected i.p. with ~9 ×
# were treated i.m. with drugs 0 and 2 h postinfection.
# [20] = Blood levels in mice after intramuscular administration; format: in vivo; settings: mouse, blood, im, 20 mg/kg, intramuscular dose of 20 mg/kg; for AUC: read-out: Blood AUC; for half-life: read-out: Blood T1/2
# Description: Compounds were solubilized in 0.1 M phosphate buffer pH 7. Values are fro
# a single test; 4 mice used per compound.
# *t1/2 refers to halflife in minutes
# **AUC refers to the area under the blood concentrationtime curve
# (§1) Also shown is the urinary recovery in the mice.
# Compounds were solubilized in 0.1 M phosphate buffer, pH 7.
# Values based on a single test; 4 mice per compound.
# *T1/2 refers to halflife in minutes
# [21] = Urinary recovery after intramuscular administration to mice; format: in vivo; settings: mouse, urine, im, 20 mg/kg, intramuscular dose of 20 mg/kg, 0-6 hour collection, read-out: Urine Recovery
# Experimental: Compounds were solubilized in 0.1 M phosphate buffer pH 7. Values are from a single test; 4 mice per compound.
# as §1
# ***Recovery based on 0-6 hour collection
# [22] = Half-life in phosphate buffer solution; format: physicochemical
# Experimental: A solution of para-nitrobenzyl 3-[2-(N-methylthiomorpholinium diphenylphosphate)ethylthio]-6α-[1'-(R)-hydroxyethyl]-7-oxo-1-azabicyclo[3.2.0]hept-2-ene-2-carboxylate (1.31 g, 1.76 mmol) in 0.1 M pH 7.4 phosphate buffer (48.8 mL), tetrahydrofuran (20 mL) and diethyl ether (20 mL) was hydrogenated over 10% pd/C (1.5 g) in a Parr shaker for 1 h at 40 psi. The reaction mixture was diluted with diethyl ether (40 mL) and the phases were separated. The organic phase was washed with water (2×5 mL). The aqueous phases were combined, filtered through a #52 hardened filter paper, washed with diethyl ether (2×20 mL) and pumped under vacuum. The aqueous solution was poured on a silica gel reverse phase column and the desired carbapenem was eluted with 5% acetonitrile-water.
# To a solution of p-nitrobenzyl (5R,6S)-3-[2-(1-methylmorpholino)ethylthio]-6-[(R)-1-hydroxyethyl]-7-oxo-1-azabicyclo[3.2.0]hept-2-ene-2-carboxylate diphenylphosphate (0.360 g, 0.49 mmol) in 13 mL of phosphate buffer (0.05 M pH 7.4) was added 0.36 g of 10% palladium-on-charcoal, 20 mL of tetrahydrofuran and 20 mL of diethyl ether. This mixture was hydrogenated (Parr) at 32 psi for 1 h. The mixture was filtered through Celite and the filter pad was washed with H2 O and diethyl ether. The aqueous phase was separated and the pH was adjusted to 7.0 with additional pH 7.4 phosphate buffer. After removing residual organic solvents in vacuo the aqueous solution was applied to a C18 reverse-phase column.
# To a solution of (5R,6S)paranitrobenzyl 3-[2-(1,4-dimethyl-1-piperazinium)ethylthio]-6-[1-(R)-hydroxyethyl]-7-oxo- 1-azabicyclo[3.2.0]hept-2-ene-2-carboxylate diphenylphosphate (0.47 g, 0.623 mmol) in wet tetrahydrofuran (25 mL) was added diethyl ether (25 mL), potassium phosphate monobasic-sodium hydroxide buffer (13 mL, pH 7.22) and 10% palladium on charcoal (0.47 g). The resulting mixture was hydrogenated at 23° C. under 40 psi for 1 h. The two layers were separated and the organic layer was extracted with water (2×7 mL).
# To a cold (-10° C.) solution of (5R,6S)-3-[2 -(N-methyl-thiomorpholinium)ethylthio]-6-[1-(R)-hydroxyethyl]-7-oxo-1-azabicyclo(3.2.0)-hept-2-ene-2-carboxylate (608 mg, 1.65 mmol) in a 1:1 mixture of acetonitrile-water (9 mL) was added m-chloroperbenzoic acid (334.8 mg, 1.65 mmol) in small portion over a 1 hour period. The mixture was then diluted with water (15 mL) and washed with diethyl ether (3×15 mL).
# A mixture of (5R,6S) paranitrobenzyl 3-[2-(1,4,4-trimethyl-1-piperazinium)ethylthio]-6-[1R-hydroxyethyl]-7-oxo- 1-azabicyclo(3.2.0)hept-2-ene-2-carboxylate bischloride (0.40 g, 0.68 mmol), phosphate buffer (30 mL, 0.05M, pH 7.0), tetrahydrofuran (10 mL), ether (30 mL) and 10% palladium on charcoal (0.40 g) was hydrogenated at 23° C. under 35 psi for 1 h. The two phases were separated. The organic phase was extracted with water (10 mL).
# [23] = system: P. aeruginosa A20481; assay: Protective effect in the intramuscular treatment of infected mice (PD50); format: in vivo; settings: Pseudomonas aeruginosa, A20481, im; mice infected i.p. (Ex. 2: 1 × 10^5 organisms), treated i.m. 0 and 2 h postinfection
# [24] = A9537, 50% serum, tube dilution, read-out: MIC S. aureus-50% serum A-9537
# [25] = A9537, tube dilution, Nutrient Broth, read-out: MIC S. aureus A-9537
SMILES,ED50 [19] [mg/kg],Cmax [20] [ng/mL],AUC [20] [ng·h/mL],half-life [20] [min],dose excreted at 6 h [21] [%],MIC [1] [µg/mL],MIC [2] [µg/mL],"MIC [3, 24] [µg/mL]","MIC [3, 25] [µg/mL]",MIC [4] [µg/mL],MIC [5] [µg/mL],MIC [6] [µg/mL],MIC [7] [µg/mL],MIC [8] [µg/mL],MIC [9] [µg/mL],MIC [10] [µg/mL],MIC [11] [µg/mL],MIC [12] [µg/mL],MIC [13] [µg/mL],MIC [14] [µg/mL],also measured
"C[C@@H](O)[C@H]1C(=O)N2C(C(=O)[O-])=C(SCC[N+]3(C)CC[S+]([O-])CC3)C[C@H]12 (single isomer, unassigned) [Ex. 5 comp. A]",> 12.5,10200,3100,7,14 ± 1,,,,,,,,,,,,,,,,"MIC S. pneumoniae A-9585 ([1]; Nutrient Broth): 0.004 µg/mL; MIC S. pyogenes A-9604 ([2]; tube dilution): 0.004 µg/mL; MIC S. aureus-50% serum A-9537 ([3]; 50% serum, tube dilution): 0.03 µg/mL; MIC S. aureus A-9537 ([3]; tube dilution, Nutrient Broth): 0.016 µg/mL; MIC S. aureus (Pen-res.) A-9606 [4]: 0.03 µg/mL; MIC S. faecalis A20688 ([5]; tube dilution): 0.05 µg/mL; MIC E. coli A15119 ([6]; tube dilution): 0.03 µg/mL; MIC E. coli A20341-1 ([7]; tube dilution): 0.03 µg/mL; MIC K. pneumoniae A-9664 ([8]; tube dilution): 0.06 µg/mL; MIC K. pneumoniae A20468 ([9]; tube dilution): 0.13 µg/mL; MIC P. mirabilis A-9900 ([10]; tube dilution): 0.13 µg/mL; MIC P. vulgaris A21559 ([11]; tube dilution): 0.06 µg/mL; MIC M. morganii A15153 ([12]; tube dilution): 0.13 µg/mL; MIC P. rettgeri A22424 ([13]; tube dilution): 0.25 µg/mL; MIC S. marcescens A20019 ([14]; tube dilution): 0.06 µg/mL; MIC E. cloacae A-9656 ([15]; tube dilution): 0.13 µg/mL; MIC P. aeruginosa A-9843a [16]: 32 µg/mL; MIC P. aeruginosa A21213 ([17]; tube dilution): 16 µg/mL; MIC E. cloacae A-9659 ([18]; tube dilution): 0.13 µg/mL; half-life ([22]; 0.065 m phosphate buffer, pH 7.4, 0.065 M, pH 7.4 phosphate buffer, 37° C., read-out: T 1/2 (solution stability) (converted)): 12 h"
"C[C@@H](O)[C@H]1C(=O)N2C(C(=O)[O-])=C(SCC[N+]3(C)CCSCC3)C[C@H]12 [Example 2, 3-[2-(N-Methyl-thiomorpholinium)ethylthio]-6α-[1'-(R)-hydroxyethyl]-7-oxo-1-azabicyclo[3.2.0]-hept-2-ene-2-carboxylate]",4.7,,,,,0.001,0.002,0.016,0.008,0.016,0.25,0.016,0.03,0.06,0.13,0.06,0.03,0.06,0.13,0.06,"MIC [15]: 0.13 µg/mL; MIC [16]: 32 µg/mL; MIC [17]: 8 µg/mL; MIC [18]: 0.13 µg/mL; ED50 [23]: 33 mg/kg; half-life ([22]; 0.1 m phosphate buffer, pH 7, 0.1 M pH 7 phosphate buffer, 37° C., read-out: T1/2 (solution stability) (converted)): 17.7 h"
"C[C@@H](O)[C@H]1C(=O)N2C(C(=O)[O-])=C(SCC[N+]3(C)CCOCC3)C[C@H]12 [Example 3, (5R,6S)-3-[2-(1-methylmorpholino)ethylthio]-6-[(R)-1-hydroxyethyl]-7-oxo-1-azabicyclo[3.2.0]hept-2-ene-2-carboxylate]",,16200,4800,8,15 ± 3,0.03,0.03,0.13,0.03,0.03,0.5,0.03,0.03,0.13,0.25,0.13,0.03,0.13,0.5,0.06,"MIC [15]: 0.5 µg/mL; MIC [16]: 63 µg/mL; MIC [17]: 8 µg/mL; MIC [18]: 0.25 µg/mL; half-life ([22]; phosphate buffer, pH 7.4, pH 7.4, 36.8° C., read-out: t1/2 (solution stability) (converted)): 18.5 h"
"C[C@@H](O)[C@H]1C(=O)N2C(C(=O)O)=C(SCC[N+]3(C)CC[N+](C)(C)CC3)C[C@H]12 [Example 6, (5R,6S)-3-[2-(1,4,4-Trimethyl-1-piperazinium)-ethylthio]-6-(1R-hydroxyethyl]-7-oxo-1-azabicyclo(3.2.0)hept-2-ene-2-carboxylate chloride]",,,,,,,,,,,,,,,,,,,,,"half-life ([22]; phosphate buffer, pH 7.4, concentration of 10^-4 M in phosphate buffer pH 7.4 at 36.8° C., read-out: t1/2 (solution stability) (converted)): 9.8 h"

# From US4536335A, “Carbapenem antibiotics” (Bristol-Myers Company, priority 1983, dated 1985)
